Experiments:
[1] = instrument: TW, calibrated with polyalanine
[2] = instrument: DT, stepped-field
[3] = instrument: DT, stepped-field; remark: listed apart in the source
[4] = instrument: DT, single field, calibrated with Agilent tune mix (Agilent)
[5] = instrument: TW, calibrated with polyalanine; remark: listed apart in the source

SMILES: O=C(O)C(CO)OP(=O)(O)O (stereo not given) [2-Phosphoglyceric acid]
- collision cross section (N2) ([1]; [M+Na]+): 132 Å²

SMILES: O=C1CC[C@@H](C(=O)O)N1 [5-Oxoproline]
- collision cross section (N2) ([1]; [M+H]+): 121 Å²

SMILES: CN(C)C(N)=NCCC[C@H](N)C(=O)O [ADMA]
- collision cross section (N2) ([1]; [M+H]+): 141 Å²

SMILES: CC(=O)N[C@@H]1[C@@H](O)[C@H](O)[C@@H](CO)O[C@H]1O [Acetylglucosamine]
- collision cross section (N2) ([1]; [M+Na]+): 153 Å²

SMILES: CC[C@H](C)[C@H](NC(=O)[C@H](Cc1ccc(O)cc1)NC(=O)[C@@H](NC(=O)[C@H](CCCN=C(N)N)NC(=O)[C@@H](N)CC(=O)O)C(C)C)C(=O)N[C@@H](Cc1cnc[nH]1)C(=O)N1CCC[C@H]1C(=O)N[C@@H](Cc1ccccc1)C(=O)O [Angiotensin II]
- collision cross section (N2) ([2]; [M+2H]2+): 353.79 Å²
- collision cross section (N2) ([2]; [M+3H]3+): 436.24 Å²
- collision cross section (N2) ([2]; [M+H]+): 314.38 Å²

SMILES: NC(N)=NCCC[C@H](N)C(=O)O [Arginine]
- collision cross section (N2) ([1]; [M+H]+): 133 Å²

SMILES: C[N+](C)(C)CCO [Choline]
- collision cross section (N2) ([1]; [M]+): 117 Å²
- collision cross section (N2) ([3]; [M]+): 119 Å²
- collision cross section (N2) ([4]; [M+H]+): 117.8 Å²

SMILES: O=C(O)CC(O)(CC(=O)O)C(=O)O [Citric acid]
- collision cross section (N2) ([1]; [M+Na]+): 138 Å²

SMILES: NC(=O)NCCC[C@H](N)C(=O)O [Citrulline]
- collision cross section (N2) ([1]; [M+H]+): 132 Å²

SMILES: CC1=C[C@H]2O[C@@H]3[C@H](O)C[C@](C)([C@@]2(CO)[C@H](O)C1=O)[C@]31CO1 [Deoxynivalenol]
- collision cross section (N2) ([5]; [M+H3C2O2]-): 183 Å²

SMILES: CCCCC/C=C\C/C=C\C/C=C\CCCCCCC(=O)O [Dihomo-gamma-Linolenic Acid]
- collision cross section (N2) ([2]; [M-H]-): 183.02 Å²

SMILES: CC(C)[C@H]1C(=O)O[C@H](C(C)C)C(=O)N(C)[C@@H](C(C)C)C(=O)O[C@H](C(C)C)C(=O)N(C)[C@@H](C(C)C)C(=O)O[C@H](C(C)C)C(=O)N1C [Enniatin B]
- collision cross section (N2) ([5]; [M+H]+): 244.1 Å²
- collision cross section (N2) ([5]; [M+K]+): 251.1 Å²
- collision cross section (N2) ([5]; [M+NH4]+): 248 Å²
- collision cross section (N2) ([5]; [M+Na]+): 248.9 Å²

SMILES: OCC1(O)OC[C@@H](O)[C@@H](O)[C@@H]1O (stereo not given in full) [Fructose]
- collision cross section (N2) ([1]; [M+Na]+): 135 Å²

SMILES: CCCC[C@@H](C)[C@@H](OC(=O)C[C@@H](CC(=O)O)C(=O)O)[C@H](C[C@@H](C)CCCCCC[C@@H](O)C[C@H](O)[C@H](C)N)OC(=O)C[C@@H](CC(=O)O)C(=O)O [Fumonisin B2]
- collision cross section (N2) ([5]; [M+H]+): 258 Å²
- collision cross section (N2) ([5]; [M+K]+): 264.5 Å²
- collision cross section (N2) ([5]; [M+Na]+): 259.2 Å²

SMILES: Nc1nc(=O)c2ncn([C@@H]3O[C@H](COP(=O)(O)O)[C@@H](O)[C@H]3O)c2[nH]1 [GMP]
- collision cross section (N2) ([1]; [M+H]+): 176 Å²

SMILES: OC[C@H]1OC(O)[C@H](O)[C@@H](O)[C@H]1O (stereo not given in full) [Galactose]
- collision cross section (N2) ([1]; [M+Na]+): 136 Å²

SMILES: N[C@@H]1[C@@H](O)[C@H](O)[C@@H](COP(=O)(O)O)O[C@@H]1O [Glucosamine 6-phosphate]
- collision cross section (N2) ([1]; [M+H]+): 150 Å²

SMILES: OC[C@H]1OC(O)[C@H](O)[C@@H](O)[C@@H]1O (stereo not given in full) [Glucose]
- collision cross section (N2) ([1]; [M+Na]+): 138 Å²

SMILES: O=C(O)[C@H]1OC(O)[C@H](O)[C@@H](O)[C@@H]1O (stereo not given in full) [Glucuronic acid]
- collision cross section (N2) ([1]; [M+Na]+): 140 Å²

SMILES: Nc1nc(=O)c2[nH]cnc2[nH]1 [Guanine]
- collision cross section (N2) ([1]; [M+H]+): 124 Å²
- collision cross section (N2) ([3]; [M+H]+): 133.55 Å²

SMILES: CCCC[C@@H](C)[C@@H](O)[C@@H](O)C[C@@H](C)C[C@H](O)CCCC[C@@H](O)C[C@H](O)[C@H](C)N [HFB1]
- collision cross section (N2) ([5]; [M+K]+): 214 Å²
- collision cross section (N2) ([5]; [M+Na]+): 209.7 Å²

SMILES: CC(=O)OC[C@]12C[C@H](OC(=O)CC(C)C)C(C)=C[C@H]1O[C@@H]1[C@H](O)[C@@H](O)[C@@]2(C)[C@]12CO2 [HT-2 toxin]
- collision cross section (N2) ([5]; [M+NH4]+): 203 Å²

SMILES: CC[C@H](C)[C@H](N)C(=O)O [Isoleucine]
- collision cross section (N2) ([1]; [M+H]+): 129 Å²

SMILES: NC(N)=NCCC[C@H](N)C(=O)O [L-Arginine]
- collision cross section (N2) ([3]; [M+Na]+): 147.8 Å²
- collision cross section (N2) ([2]; [M+H]+): 136.84 Å²
- collision cross section (N2) ([2]; [M-H]-): 138.03 Å²
- collision cross section (N2) ([4]; [M+H]+): 136.4 Å²

SMILES: CC[C@H](C)[C@H](N)C(=O)O [L-Isoleucine]
- collision cross section (N2) ([3]; [M+H]+): 136.97 Å²
- collision cross section (N2) ([2]; [M+H]+): 133.81 Å²
- collision cross section (N2) ([2]; [M-H]-): 131.29 Å²

SMILES: CSCC[C@H](N)C(=O)O [L-Methionine]
- collision cross section (N2) ([3]; [M+H]+): 133.65 Å²
- collision cross section (N2) ([2]; [M+H]+): 134.08 Å²

SMILES: N[C@@H](Cc1ccccc1)C(=O)O [L-Phenylalanine]
- collision cross section (N2) ([3]; [M+Na]+): 138.91 Å²
- collision cross section (N2) ([2]; [M+H]+): 141.28 Å²
- collision cross section (N2) ([2]; [M-H]-): 141.29 Å²
- collision cross section (N2) ([4]; [M+H]+): 140.3 Å²

SMILES: N[C@@H](Cc1ccc(O)cc1)C(=O)O [L-Tyrosine]
- collision cross section (N2) ([3]; [M+Na]+): 143.97 Å²
- collision cross section (N2) ([2]; [M+H]+): 146.45 Å²
- collision cross section (N2) ([2]; [M-H]-): 145.59 Å²
- collision cross section (N2) ([4]; [M+H]+): 145.7 Å²

SMILES: CCCCCCCCCCCCCCCCC(=O)O [Margaric acid]
- collision cross section (N2) ([2]; [M-H]-): 173.41 Å²

SMILES: CSCC[C@H](N)C(=O)O [Methionine]
- collision cross section (N2) ([1]; [M+H]+): 127 Å²

SMILES: O=C(O)c1cccnc1 [Nicotinic acid]
- collision cross section (N2) ([1]; [M+H]+): 115 Å²

SMILES: CC1=C[C@H]2O[C@@H]3[C@H](O)[C@@H](O)[C@](C)([C@@]2(CO)[C@H](O)C1=O)[C@]31CO1 [Nivalenol]
- collision cross section (N2) ([5]; [M+H3C2O2]-): 180 Å²

SMILES: CCCCCCCC/C=C\CCCCCCCC(=O)O [Oleic acid]
- collision cross section (N2) ([2]; [M-H]-): 176.46 Å²
- collision cross section (N2) ([4]; [M-H]-): 173.88 Å²

SMILES: CC(C)(O)[C@H]1O[C@H]2CC[C@@]3(C)[C@@](O)(CC[C@H]4Cc5c([nH]c6ccccc56)[C@@]43C)C2=CC1=O [Paxilline]
- collision cross section (N2) ([5]; [M+H]+): 201 Å²

SMILES: CCCCCCCCCCCCCCC(=O)O [Pentadecanoic acid]
- collision cross section (N2) ([2]; [M-H]-): 165.34 Å²

SMILES: N[C@@H](Cc1ccccc1)C(=O)O [Phenylalanine]
- collision cross section (N2) ([1]; [M+H]+): 135 Å²

SMILES: Cc1ncc(CO)c(CN)c1O [Pyridoxamine]
- collision cross section (N2) ([1]; [M+H]+): 130 Å²
- collision cross section (N2) ([3]; [M+H]+): 135.79 Å²
- collision cross section (N2) ([3]; [M+Na]+): 148.49 Å²
- collision cross section (N2) ([4]; [M+H]+): 134 Å²

SMILES: C=CC(C)(C)C12CC3C(=O)N/C(=C/c4cnc[nH]4)C(=O)N3C1Nc1ccccc12 (stereo not given) [Roquefortine C]
- collision cross section (N2) ([5]; [M+H]+): 179 Å²

SMILES: Nc1ncnc2c1ncn2[C@@H]1O[C@H](CSCC[C@H](N)C(=O)O)[C@@H](O)[C@H]1O [SAH]
- collision cross section (N2) ([1]; [M+H]+): 179 Å²

SMILES: C[S+](CC[C@H](N)C(=O)[O-])C[C@H]1O[C@@H](n2cnc3c(N)ncnc32)[C@H](O)[C@@H]1O (stereo not given in full) [SAMe]
- collision cross section (N2) ([1]; [M]+): 184 Å²

SMILES: CCCCCCCCCCCCCCCCCC(=O)O [Stearic acid]
- collision cross section (N2) ([2]; [M-H]-): 177.66 Å²
- collision cross section (N2) ([4]; [M-H]-): 174.42 Å²

SMILES: COc1cc2c(c3oc4cccc(O)c4c(=O)c13)[C@@H]1C=CO[C@@H]1O2 [Sterigmatocystin]
- collision cross section (N2) ([5]; [M+H]+): 163 Å²

SMILES: N[C@@H](Cc1ccc(O)cc1)C(=O)O [Tyrosine]
- collision cross section (N2) ([1]; [M+H]+): 139 Å²

SMILES: O=c1ccn([C@@H]2O[C@H](COP(=O)(O)OP(=O)(O)O)[C@@H](O)[C@H]2O)c(=O)[nH]1 [UDP]
- collision cross section (N2) ([1]; [M+H]+): 174 Å²

SMILES: O=c1cc[nH]c(=O)[nH]1 [Uracil]
- collision cross section (N2) ([1]; [M+H]+): 115 Å²
- collision cross section (N2) ([3]; [M+H]+): 126.98 Å²
- collision cross section (N2) ([4]; [M+H]+): 118.5 Å²

SMILES: OC[C@H]1OC(O)[C@H](O)[C@@H](O)[C@@H]1O (stereo partly drawn) [a-D-Glucose]
- collision cross section (N2) ([2]; [M+Na]+): 147.35 Å²

SMILES: C[C@H]1CCC[C@@H](O)CCC/C=C/c2cc(O)cc(O)c2C(=O)O1 [beta-zearalenol]
- collision cross section (N2) ([5]; [M-H]-): 173 Å²

SMILES: CCCCC/C=C\C/C=C\CCCCCCCCCC(=O)O [cis-11,14-Eicosadienoic acid]
- collision cross section (N2) ([2]; [M-H]-): 183.32 Å²

SMILES: CCCCCCCC/C=C\CCCCCCCCCC(=O)O [cis-Gondoic acid]
- collision cross section (N2) ([2]; [M-H]-): 184.29 Å²

SMILES: Cc1cn([C@H]2C[C@H](O)[C@@H](COP(=O)(O)O)O2)c(=O)[nH]c1=O [dTMP]
- collision cross section (N2) ([1]; [M+Na]+): 170 Å²

Reference: the C3SDB collision cross section collection
